Earlier results in publication PMC9239115 (Amino acids, 2017).

Assays:
[1] = test system: C6 glioma cell lines; conditions: up to 200 μM; ref Pes 2013
[2] = degraded in the circulation by ACE; ref Rodgers et al. 2006

| Half-life in the circulation [2] [min] | SMILES | Toxicity on C6 glioma cell lines [1] |
| --- | --- | --- |
|  | NC[C@H]1C[C@@H](C(=O)O)C1 [ACCA, cis-3-(Aminomethyl)cyclobutanecarboxylic acid] | did not show any toxicity |
| 29 | CC[C@H](C)[C@H](NC(=O)[C@H](Cc1ccc(O)cc1)NC(=O)[C@@H](NC(=O)[C@H](CCCNC(=N)N)NC(=O)[C@@H](N)CC(=O)O)C(C)C)C(=O)N[C@@H](Cc1c[nH]cn1)C(=O)N1CCC[C@H]1C(=O)O [Ang-(1–7), Angiotensin-(1–7)] |  |
